Measured values taken from US12097192B2 (Corcept Therapeutics Incorporated, priority 2019, dated 2024).

Assays:
Type in all cases: in vivo, human
[1] = system: Cushing's syndrome patients; assay: Cushing's syndrome patient study: POMC/proACTH and HPA axis; details: for POMC and proACTH mean change from Baseline to Last Observed: All Subjects
Description: (§1) All patients gave informed consent before participating in any study-related procedures. […] The study protocol called for patient visits to the study site at screening, on Day 1 (baseline), Weeks 2, 4, 6, 8, 10, and 12, and after a 4-week follow-up period for Group 1. For Group 2, the protocol called for patient visits to the study site at screening, on Day 1 (baseline), Weeks 2, 4, 6, 8, 10, 12, 14, and 16, and after a 4-week follow-up period. Patient dosing will be done at home, except on days of study visits. […] It ignores noncompliance, protocol deviations, withdrawal, and anything that happens after randomization. In contrast, per-protocol (PP) analysis refers to inclusion in the analysis of only those patients who strictly adhered to the protocol. The PP analysis provides an estimate of the true efficacy of an intervention, i.e., among those who completed the treatment as planned.

[2] = system: Cushing's syndrome patients; assay: Cushing's syndrome patient study: liver function tests (ALT, AST); details: All Subjects, mITT
Description: (§2) All patients gave informed consent before participating in any study-related procedures. […] The study protocol called for patient visits to the study site at screening, on Day 1 (baseline), Weeks 2, 4, 6, 8, 10, and 12, and after a 4-week follow-up period for Group 1. For Group 2, the protocol called for patient visits to the study site at screening, on Day 1 (baseline), Weeks 2, 4, 6, 8, 10, 12, 14, and 16, and after a 4-week follow-up period. Patient dosing will be done at home, except on days of study visits. […] The safety protocol also included assessments by physical examination findings, vital signs, ECG results, pregnancy tests, clinical laboratory test results (hematology and chemistry panels), adverse events (AEs), and concomitant medications. […] It ignores noncompliance, protocol deviations, withdrawal, and anything that happens after randomization. In contrast, per-protocol (PP) analysis refers to inclusion in the analysis of only those patients who strictly adhered to the protocol. The PP analysis provides an estimate of the true efficacy of an intervention, i.e., among those who completed the treatment as planned.

[3] = system: Cushing's syndrome patients; assay: Cushing's syndrome patient study: bone markers; set-up: Serμm Bone Alkaline Phosphatase mean change from Baseline to Last Observed: unit not given here; details: All Subjects
Description: as §1

[4] = system: Cushing's syndrome patients; assay: Cushing's syndrome patient study: coagulation factors, platelets, aPTT
Description: as §2

[5] = mITT, Group 2 (250-400 mg/day, 16 weeks)
[6] = mPP, Group 2 (250-400 mg/day, 16 weeks)
[7] = Group 1 (100-200 mg/day, 12 weeks)
[8] = Group 2 (250-400 mg/day, 16 weeks)
[9] = mITT, Group 1 (100-200 mg/day, 12 weeks)
[10] = mPP, Group 1 (100-200 mg/day, 12 weeks)
[11] = Abnormal at Baseline, mITT, Group 1 (100-200 mg/day, 12 weeks)
[12] = Abnormal at Baseline, mITT, Group 2 (250-400 mg/day, 16 weeks)
[13] = Abnormal at Baseline, mITT, Overall
[14] = Abnormal at Baseline, mPP, Group 1 (100-200 mg/day, 12 weeks)
[15] = Abnormal at Baseline, mPP, Group 2 (250-400 mg/day, 16 weeks)
[16] = Abnormal at Baseline, mPP, Overall
[17] = All Subjects, mITT, Group 1 (100-200 mg/day, 12 weeks)
[18] = All Subjects, mITT, Group 2 (250-400 mg/day, 16 weeks)
[19] = All Subjects, mPP, Group 1 (100-200 mg/day, 12 weeks)
[20] = All Subjects, mPP, Group 2 (250-400 mg/day, 16 weeks)

Cn1cc(S(=O)(=O)N2CCC3=Cc4c(cnn4-c4ccc(F)cc4)C[C@]3(C(=O)c3cc(C(F)(F)F)ccn3)C2)cn1 [relacorilant, (R)-(1-(4-fluorophenyl)-6-((1-methyl-1H-pyrazol-4-yl)sulfonyl)-4,4a,5,6,7,8-hexahydro-1H-pyrazolo[3,4-g]isoquinolin-4a-yl) (4-(trifluoromethyl)pyridin-2-yl)methanone]
POMC and proACTH mean change from Baseline to Last Observed [1, 5]: 7.91 pmol/L | POMC and proACTH mean change from Baseline to Last Observed ([1]; mITT, Overall): 7.91 pmol/L | POMC and proACTH mean change from Baseline to Last Observed [1, 6]: 7.91 pmol/L | POMC and proACTH mean change from Baseline to Last Observed ([1]; mPP, Overall): 7.91 pmol/L | restoration of the suppressed HPA axis ([1]; patients with adrenal Cushing syndrome): half of the cases | ALT (SGPT) mean change from Baseline to Last Observed [2, 7]: −7.88 U/L | AST (SGOT) mean change from Baseline to Last Observed [2, 7]: −2.71 U/L | ALT (SGPT) mean change from Baseline to Last Observed [2, 8]: −13.35 U/L | AST (SGOT) mean change from Baseline to Last Observed [2, 8]: −7.31 U/L | ALT (SGPT) mean change from Baseline to Last Observed ([2]; Overall): −10.62 U/L | AST (SGOT) mean change from Baseline to Last Observed ([2]; Overall): −4.94 U/L | Serμm Bone Alkaline Phosphatase mean change from Baseline to Last Observed [3, 9]: 1.82 | Serμm Osteocalcin mean change from Baseline to Last Observed [3, 9]: 4.57 µg/L | Urinary NTx mean change from Baseline to Last Observed [3, 9]: 2.21 nmolBCE/mmol | Serμm Bone Alkaline Phosphatase mean change from Baseline to Last Observed [3, 5]: −1.09 | Serμm Osteocalcin mean change from Baseline to Last Observed [3, 5]: 1.33 µg/L | Urinary NTx mean change from Baseline to Last Observed [3, 5]: 0.63 nmolBCE/mmol | Serμm Bone Alkaline Phosphatase mean change from Baseline to Last Observed ([3]; mITT, Overall): 0.41 | Serμm Osteocalcin mean change from Baseline to Last Observed ([3]; mITT, Overall): 3 µg/L | Urinary NTx mean change from Baseline to Last Observed ([3]; mITT, Overall): 1.37 nmolBCE/mmol | Serμm Bone Alkaline Phosphatase mean change from Baseline to Last Observed [3, 10]: 1.82 | Serμm Osteocalcin mean change from Baseline to Last Observed [3, 10]: 4.68 µg/L | Urinary NTx mean change from Baseline to Last Observed [3, 10]: 2.21 nmolBCE/mmol | Serμm Bone Alkaline Phosphatase mean change from Baseline to Last Observed [3, 6]: −1.09 | Serμm Osteocalcin mean change from Baseline to Last Observed [3, 6]: 1.33 µg/L | Urinary NTx mean change from Baseline to Last Observed [3, 6]: 0.63 nmolBCE/mmol | Serμm Bone Alkaline Phosphatase mean change from Baseline to Last Observed ([3]; mPP, Overall): 0.41 | Serμm Osteocalcin mean change from Baseline to Last Observed ([3]; mPP, Overall): 3.06 µg/L | Urinary NTx mean change from Baseline to Last Observed ([3]; mPP, Overall): 1.37 nmolBCE/mmol | Factor IX mean change from Baseline to Last Observed [4, 11]: −40.8% | Factor X mean change from Baseline to Last Observed [4, 11]: −15.8% | Thrombin-Antithrombin mean change from Baseline to Last Observed [4, 11]: 1.61 µg/L | Factor IX mean change from Baseline to Last Observed [4, 12]: −4.2% | Factor X mean change from Baseline to Last Observed [4, 12]: −22% | Thrombin-Antithrombin mean change from Baseline to Last Observed [4, 12]: -9.83 µg/L | von Willebrand Factor mean change from Baseline to Last Observed [4, 12]: −18.5% | Factor IX mean change from Baseline to Last Observed [4, 13]: −22.5% | Factor X mean change from Baseline to Last Observed [4, 13]: −18.13% | Thrombin-Antithrombin mean change from Baseline to Last Observed [4, 13]: -3.88 µg/L | von Willebrand Factor mean change from Baseline to Last Observed [4, 13]: −18.5% | Factor IX mean change from Baseline to Last Observed [4, 14]: −40.8% | Factor X mean change from Baseline to Last Observed [4, 14]: −15.8% | Thrombin-Antithrombin mean change from Baseline to Last Observed [4, 14]: 1.61 µg/L | Factor IX mean change from Baseline to Last Observed [4, 15]: −4.2% | Factor X mean change from Baseline to Last Observed [4, 15]: −22% | Thrombin-Antithrombin mean change from Baseline to Last Observed [4, 15]: -9.83 µg/L | von Willebrand Factor mean change from Baseline to Last Observed [4, 15]: −18.5% | Factor IX mean change from Baseline to Last Observed [4, 16]: −22.5% | Factor X mean change from Baseline to Last Observed [4, 16]: −18.13% | Thrombin-Antithrombin mean change from Baseline to Last Observed [4, 16]: -3.88 µg/L | von Willebrand Factor mean change from Baseline to Last Observed [4, 16]: −18.5% | Factor IX mean change from Baseline to Last Observed [4, 17]: −11.59% | Factor VIII mean change from Baseline to Last Observed [4, 17]: −11.94% | Factor X mean change from Baseline to Last Observed [4, 17]: −0.06% | Platelet Count mean change from Baseline to Last Observed [4, 17]: −62.82 10^9/L | Thrombin-Antithrombin mean change from Baseline to Last Observed [4, 17]: 1.48 µg/L | aPTT mean change from Baseline to Last Observed [4, 17]: 2.24 s | von Willebrand Factor mean change from Baseline to Last Observed [4, 17]: 2.88% | Factor IX mean change from Baseline to Last Observed [4, 18]: 6.44% | Factor VIII mean change from Baseline to Last Observed [4, 18]: −26.38% | Factor X mean change from Baseline to Last Observed [4, 18]: −8.88% | Platelet Count mean change from Baseline to Last Observed [4, 18]: −74.82 10^9/L | Thrombin-Antithrombin mean change from Baseline to Last Observed [4, 18]: -7.13 µg/L | aPTT mean change from Baseline to Last Observed [4, 18]: 0.5 s | von Willebrand Factor mean change from Baseline to Last Observed [4, 18]: 10.88% | Factor IX mean change from Baseline to Last Observed ([4]; All Subjects, mITT, Overall): −2.85% | Factor VIII mean change from Baseline to Last Observed ([4]; All Subjects, mITT, Overall): −18.94% | Factor X mean change from Baseline to Last Observed ([4]; All Subjects, mITT, Overall): −4.33% | Platelet Count mean change from Baseline to Last Observed ([4]; All Subjects, mITT, Overall): −68.82 10^9/L | Thrombin-Antithrombin mean change from Baseline to Last Observed ([4]; All Subjects, mITT, Overall): -2.69 µg/L | aPTT mean change from Baseline to Last Observed ([4]; All Subjects, mITT, Overall): 1.45 s | von Willebrand Factor mean change from Baseline to Last Observed ([4]; All Subjects, mITT, Overall): 6.76% | Factor IX mean change from Baseline to Last Observed [4, 19]: −11.59% | Factor VIII mean change from Baseline to Last Observed [4, 19]: −11.94% | Factor X mean change from Baseline to Last Observed [4, 19]: −0.06% | Thrombin-Antithrombin mean change from Baseline to Last Observed [4, 19]: 1.48 µg/L | aPTT mean change from Baseline to Last Observed [4, 19]: 2.24 s | von Willebrand Factor mean change from Baseline to Last Observed [4, 19]: 2.88% | Factor IX mean change from Baseline to Last Observed [4, 20]: 6.44% | Factor VIII mean change from Baseline to Last Observed [4, 20]: −26.38% | Factor X mean change from Baseline to Last Observed [4, 20]: −8.88% | Thrombin-Antithrombin mean change from Baseline to Last Observed [4, 20]: -7.13 µg/L | aPTT mean change from Baseline to Last Observed [4, 20]: 0.5 s | von Willebrand Factor mean change from Baseline to Last Observed [4, 20]: 10.88% | Factor IX mean change from Baseline to Last Observed ([4]; All Subjects, mPP, Overall): −2.85% | Factor VIII mean change from Baseline to Last Observed ([4]; All Subjects, mPP, Overall): −18.94% | Factor X mean change from Baseline to Last Observed ([4]; All Subjects, mPP, Overall): −4.33% | Thrombin-Antithrombin mean change from Baseline to Last Observed ([4]; All Subjects, mPP, Overall): -2.69 µg/L | aPTT mean change from Baseline to Last Observed ([4]; All Subjects, mPP, Overall): 1.45 s | von Willebrand Factor mean change from Baseline to Last Observed ([4]; All Subjects, mPP, Overall): 6.76% | coagulation factors (FIG. 3) ([4]; Cushing's syndrome patients): improvement in coagulation factors | onset of improvement/normalization of abnormally elevated coagulation factors ([4]; treatment with relacorilant): as early as after one month
